Assay results as given in ChEMBL document CHEMBL1139555, “Discovery of potent and selective phenylalanine based dipeptidyl peptidase IV inhibitors” (Bioorg Med Chem Lett, 2005).

Assays:
Dipeptidyl peptidase 9 = Dipeptidyl peptidase 9 (Homo sapiens, UniProt Q86TI2)
Dipeptidyl peptidase 2 = Dipeptidyl peptidase 2 (Homo sapiens, UniProt Q9UHL4)
Dipeptidyl peptidase 8 = Dipeptidyl peptidase 8 (Homo sapiens, UniProt Q6V1X1)
Dipeptidyl peptidase 4 = Dipeptidyl peptidase 4 (Homo sapiens, UniProt P27487)
Chain of Dipeptidyl peptidase 4 (P27487 whole entry): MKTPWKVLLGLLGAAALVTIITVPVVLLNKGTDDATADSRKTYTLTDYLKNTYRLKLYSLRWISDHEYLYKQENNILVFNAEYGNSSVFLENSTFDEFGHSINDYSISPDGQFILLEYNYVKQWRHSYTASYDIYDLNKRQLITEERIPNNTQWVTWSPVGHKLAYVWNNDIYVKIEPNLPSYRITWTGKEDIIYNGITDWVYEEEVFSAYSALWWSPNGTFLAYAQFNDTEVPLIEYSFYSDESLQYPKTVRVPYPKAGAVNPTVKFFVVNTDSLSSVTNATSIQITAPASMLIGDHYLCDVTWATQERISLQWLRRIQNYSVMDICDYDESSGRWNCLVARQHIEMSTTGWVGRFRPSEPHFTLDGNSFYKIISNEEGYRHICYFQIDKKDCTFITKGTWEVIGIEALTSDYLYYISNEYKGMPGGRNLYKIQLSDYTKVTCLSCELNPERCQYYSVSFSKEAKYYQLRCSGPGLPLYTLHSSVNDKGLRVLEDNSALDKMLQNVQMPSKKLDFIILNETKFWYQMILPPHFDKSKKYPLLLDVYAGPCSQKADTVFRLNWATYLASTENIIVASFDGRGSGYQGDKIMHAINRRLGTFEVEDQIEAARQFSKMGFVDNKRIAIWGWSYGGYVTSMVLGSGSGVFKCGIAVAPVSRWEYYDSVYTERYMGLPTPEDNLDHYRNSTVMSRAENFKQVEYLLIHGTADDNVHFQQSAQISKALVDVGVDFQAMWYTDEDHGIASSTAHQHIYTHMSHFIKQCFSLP

Chain of Dipeptidyl peptidase 8 (Q6V1X1 whole entry): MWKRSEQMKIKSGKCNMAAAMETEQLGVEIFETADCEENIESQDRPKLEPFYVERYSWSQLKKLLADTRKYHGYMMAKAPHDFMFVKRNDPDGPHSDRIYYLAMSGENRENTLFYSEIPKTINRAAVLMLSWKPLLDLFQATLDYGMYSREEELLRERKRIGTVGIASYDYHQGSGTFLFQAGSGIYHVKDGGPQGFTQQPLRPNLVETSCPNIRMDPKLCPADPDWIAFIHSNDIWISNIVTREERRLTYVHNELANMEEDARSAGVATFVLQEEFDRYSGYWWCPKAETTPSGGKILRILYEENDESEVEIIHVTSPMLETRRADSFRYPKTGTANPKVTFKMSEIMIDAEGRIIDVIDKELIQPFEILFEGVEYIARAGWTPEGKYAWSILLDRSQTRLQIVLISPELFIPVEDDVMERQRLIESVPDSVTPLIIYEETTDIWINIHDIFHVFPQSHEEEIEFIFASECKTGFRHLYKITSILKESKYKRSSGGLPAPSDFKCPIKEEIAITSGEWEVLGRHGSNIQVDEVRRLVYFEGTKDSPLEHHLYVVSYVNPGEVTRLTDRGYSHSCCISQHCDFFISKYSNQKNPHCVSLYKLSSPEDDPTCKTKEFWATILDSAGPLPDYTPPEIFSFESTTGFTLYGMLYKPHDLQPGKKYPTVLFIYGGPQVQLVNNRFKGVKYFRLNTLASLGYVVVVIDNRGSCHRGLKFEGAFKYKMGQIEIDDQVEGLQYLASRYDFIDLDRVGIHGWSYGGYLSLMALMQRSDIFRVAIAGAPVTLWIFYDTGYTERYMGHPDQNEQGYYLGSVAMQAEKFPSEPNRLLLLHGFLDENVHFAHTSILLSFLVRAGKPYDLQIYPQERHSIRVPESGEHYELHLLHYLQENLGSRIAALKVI
Chain of Dipeptidyl peptidase 9 (Q86TI2 whole entry): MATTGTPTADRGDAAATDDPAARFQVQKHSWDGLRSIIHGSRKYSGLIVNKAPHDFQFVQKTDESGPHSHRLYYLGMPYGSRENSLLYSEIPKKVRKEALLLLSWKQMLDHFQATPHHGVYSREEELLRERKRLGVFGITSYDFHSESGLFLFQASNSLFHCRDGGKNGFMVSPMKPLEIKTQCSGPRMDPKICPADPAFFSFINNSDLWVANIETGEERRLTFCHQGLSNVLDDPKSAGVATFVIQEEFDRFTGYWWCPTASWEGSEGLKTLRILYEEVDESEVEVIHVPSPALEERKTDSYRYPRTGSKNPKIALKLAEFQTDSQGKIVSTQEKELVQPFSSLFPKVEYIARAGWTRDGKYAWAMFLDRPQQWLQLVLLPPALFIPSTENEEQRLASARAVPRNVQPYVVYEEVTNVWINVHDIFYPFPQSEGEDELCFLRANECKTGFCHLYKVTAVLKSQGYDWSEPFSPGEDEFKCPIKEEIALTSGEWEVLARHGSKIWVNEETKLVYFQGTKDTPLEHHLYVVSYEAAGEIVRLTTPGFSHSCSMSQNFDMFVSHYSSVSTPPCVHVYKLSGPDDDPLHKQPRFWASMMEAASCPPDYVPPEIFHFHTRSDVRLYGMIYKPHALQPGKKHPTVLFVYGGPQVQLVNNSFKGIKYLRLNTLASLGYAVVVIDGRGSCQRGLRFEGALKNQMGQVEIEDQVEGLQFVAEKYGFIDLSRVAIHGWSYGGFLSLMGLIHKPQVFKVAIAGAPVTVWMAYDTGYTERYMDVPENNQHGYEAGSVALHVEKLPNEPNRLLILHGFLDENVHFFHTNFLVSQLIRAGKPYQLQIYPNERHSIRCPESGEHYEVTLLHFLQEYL

SMILES | IC50 (Dipeptidyl peptidase 9) | IC50 (Dipeptidyl peptidase 2) | IC50 (Dipeptidyl peptidase 8) | IC50 (Dipeptidyl peptidase 4)
C[C@@H](c1ccc(-c2ccncc2)cc1)[C@H](N)C(=O)N1CC[C@H](F)C1 | > 100000 nM | 3100 nM | > 100000 nM | 110 nM
C[C@@H](c1ccc(S(C)(=O)=O)cc1)[C@H](N)C(=O)N1CC[C@H](F)C1 | > 100000 nM | 36000 nM | > 100000 nM | 3600 nM
C[C@@H](c1ccc(-c2ccc(C(=O)O)cc2)cc1)[C@H](N)C(=O)N1CC[C@H](F)C1 | > 100000 nM | 8600 nM | > 100000 nM | 370 nM
C[C@@H](c1ccc(-c2ccc(F)c(F)c2)cc1)[C@H](N)C(=O)N1CC[C@H](F)C1 |  | 2000 nM |  | 60 nM
C[C@@H](c1ccc(-c2ccc(NS(C)(=O)=O)cc2)cc1)[C@H](N)C(=O)N1CC[C@H](F)C1 | > 100000 nM | 1800 nM | > 100000 nM | 710 nM
C[C@@H](c1cccc(Cl)c1)[C@H](N)C(=O)N1CC[C@H](F)C1 | > 100000 nM | 5700 nM | > 100000 nM | 1100 nM
C[C@@H](c1ccc(C(=O)[n+]2ccc[nH]2)cc1)[C@H](N)C(=O)N1CC[C@H](F)C1 | > 100000 nM | 1500 nM |  | 1700 nM
C[C@@H](c1ccc(N2CCCCC2)cc1)[C@H](N)C(=O)N1CC[C@H](F)C1 | > 100000 nM | 28000 nM | > 100000 nM | 7900 nM
C[C@@H](c1ccc(-c2ccccc2C(F)(F)F)cc1)[C@H](N)C(=O)N1CC[C@H](F)C1 | > 100000 nM | 2500 nM | > 100000 nM | 130 nM
COc1ccccc1-c1ccc([C@H](C)[C@H](N)C(=O)N2CC[C@H](F)C2)cc1 | > 100000 nM | 3800 nM | > 100000 nM | 110 nM
C[C@@H](c1ccc(-c2cc(F)ccc2F)cc1)[C@H](N)C(=O)N1CC[C@H](F)C1 | > 100000 nM | 1300 nM | > 100000 nM | 
C[C@@H](c1ccccc1)[C@H](N)C(=O)N1CCSC1 | > 100000 nM |  | > 100000 nM | 968 nM
C[C@@H](c1cccc(F)c1)[C@H](N)C(=O)N1CC[C@H](F)C1 | > 100000 nM | 14000 nM | > 100000 nM | 3700 nM
C[C@@H](c1ccc(Cl)cc1F)[C@H](N)C(=O)N1CC[C@H](F)C1 | > 100000 nM | 5600 nM | > 100000 nM | 480 nM
C[C@@H](c1ccc(-c2ccccn2)cc1)[C@H](N)C(=O)N1CC[C@H](F)C1 | > 100000 nM | 4600 nM | > 100000 nM | 240 nM
C[C@@H](c1ccc(C(F)(F)F)cc1)[C@H](N)C(=O)N1CC[C@H](F)C1 | > 100000 nM | 5200 nM | > 100000 nM | 600 nM
C[C@@H](c1ccc(-c2ccc(F)cc2F)cc1)[C@H](N)C(=O)N1CC[C@H](F)C1 | > 100000 nM | 2500 nM | > 100000 nM | 37 nM
C[C@@H](c1ccc(-c2ccccc2)c(F)c1)[C@H](N)C(=O)N1CC[C@H](F)C1 | > 100000 nM | 48000 nM | > 100000 nM | 2000 nM
C[C@@H](c1ccc(-c2cccnc2)cc1)[C@H](N)C(=O)N1CC[C@H](F)C1 | > 100000 nM | 4800 nM | > 100000 nM | 110 nM
C[C@@H](c1ccc(-c2cc(F)cc(F)c2)cc1)[C@H](N)C(=O)N1CC[C@H](F)C1 |  | 2000 nM |  | 240 nM
C[C@@H](c1ccc(F)cc1Cl)[C@H](N)C(=O)N1CC[C@H](F)C1 | > 100000 nM | 46000 nM | > 100000 nM | 4200 nM
C[C@@H](c1ccccc1)[C@H](N)C(=O)N1CC[C@H](F)C1 | > 100000 nM | 59000 nM | > 100000 nM | 1400 nM
CSc1ccc([C@H](C)[C@H](N)C(=O)N2CC[C@H](F)C2)cc1 |  | 5900 nM |  | 360 nM
C[C@@H](c1ccc(F)cc1)[C@H](N)C(=O)N1CC[C@H](F)C1 |  | 23000 nM | > 100000 nM | 
C[C@@H](c1ccc(F)c(F)c1)[C@H](N)C(=O)N1CC[C@H](F)C1 |  | 11000 nM | > 100000 nM | 1100 nM
C[C@@H](c1ccc(-c2cncnc2)cc1)[C@H](N)C(=O)N1CC[C@H](F)C1 | > 100000 nM | 10000 nM |  | 580 nM
C[C@@H](c1ccc(-c2ccccc2)cc1)[C@H](N)C(=O)N1CC[C@H](F)C1 | > 100000 nM | 3000 nM |  | 120 nM
C[C@@H](c1ccc(-c2cccc(S(C)(=O)=O)c2)cc1)[C@H](N)C(=O)N1CC[C@H](F)C1 |  | 2900 nM |  | 110 nM
C[C@@H](c1ccc(F)c(Cl)c1)[C@H](N)C(=O)N1CC[C@H](F)C1 |  | 5200 nM |  | 2800 nM
Cc1ccccc1-c1ccc([C@H](C)[C@H](N)C(=O)N2CC[C@H](F)C2)cc1 | > 100000 nM | 2500 nM | > 100000 nM | 

The remaining lines, values ahead:

IC50 (Dipeptidyl peptidase 9) | IC50 (Dipeptidyl peptidase 2) | IC50 (Dipeptidyl peptidase 8) | IC50 (Dipeptidyl peptidase 4) | SMILES
> 100000 nM | 330 nM |  | 130 nM | COc1ccc(-c2ccc([C@H](C)[C@H](N)C(=O)N3CC[C@H](F)C3)cc2)cc1
> 100000 nM | 250 nM | > 100000 nM | 150 nM | C[C@@H](c1ccc(-c2cccc(NS(C)(=O)=O)c2)cc1)[C@H](N)C(=O)N1CC[C@H](F)C1
 | 1300 nM | > 100000 nM | 27 nM | C[C@@H](c1ccc(-c2cccc(NS(=O)(=O)C(F)(F)F)c2)cc1)[C@H](N)C(=O)N1CC[C@H](F)C1
> 100000 nM | 1100 nM | > 100000 nM | 100 nM | C[C@@H](c1ccc(-c2ccccc2F)cc1)[C@H](N)C(=O)N1CC[C@H](F)C1
> 100000 nM | 960 nM | > 100000 nM | 69 nM | C[C@@H](c1ccc(-c2cccc(-c3nnco3)c2)cc1)[C@H](N)C(=O)N1CC[C@H](F)C1
> 100000 nM | 1200 nM | > 100000 nM | 420 nM | C[C@@H](c1ccc(-c2ccc(S(C)(=O)=O)cc2)cc1)[C@H](N)C(=O)N1CC[C@H](F)C1
 | 1100 nM |  | 95 nM | C[C@@H](c1ccc(-c2cccc(-c3n[nH]c(O)n3)c2)cc1)[C@H](N)C(=O)N1CC[C@H](F)C1
> 100000 nM | 96 nM |  | 140 nM | C[C@@H](c1ccc(-c2cccc(-c3noc(C4CC4)n3)c2)cc1)[C@H](N)C(=O)N1CC[C@H](F)C1
> 100000 nM | 350 nM | > 100000 nM | 98 nM | C[C@@H](c1ccc(-c2cccc(-c3nc[nH]n3)c2)cc1)[C@H](N)C(=O)N1CC[C@H](F)C1
 | 830 nM |  | 110 nM | C[C@@H](c1ccc(-c2cccc(-c3c[nH]c(O)n3)c2)cc1)[C@H](N)C(=O)N1CC[C@H](F)C1
 | 820 nM |  |  | C[C@@H](c1ccc(-c2cccc(C(N)=O)c2)cc1)[C@H](N)C(=O)N1CC[C@H](F)C1
> 100000 nM | 670 nM |  | 510 nM | C[C@@H](c1ccc(-c2ccc(C(F)(F)F)cc2)cc1)[C@H](N)C(=O)N1CC[C@H](F)C1
> 100000 nM | 870 nM |  | 140 nM | C[C@@H](c1ccc(-c2cccc(-n3cnnn3)c2)cc1)[C@H](N)C(=O)N1CC[C@H](F)C1
> 100000 nM | 1100 nM |  | 390 nM | Cc1ccc(-c2ccc([C@H](C)[C@H](N)C(=O)N3CC[C@H](F)C3)cc2)cc1
